{"source": "patent US8603527B2", "about": "“Pharmaceutical formulations of a substituted diaminopurine” (Signal Pharmaceuticals, LLC, priority 2010, dated 2013)", "key": {"[1]": {"assay": "Pharmacokinetics (plasma and urine) of ascending multiple oral doses in healthy volunteers", "type": "in vivo, human", "conditions": "both sexes, human, oral; for AUC: τ = 24 hours (N = 8), read-out: AUC(0-τ); for AUC / AUC(0-inf) / Cmax / concentration at 24 h / CL renal / CL renal at 14 days: geometric mean; for Cmax: read-out: Cmax; for concentration at 24 h: read-out: Ctrough; for CL renal / CL renal at 14 days: urine, read-out: CLR (renal clearance of drug)", "description": "Subjects: Forty healthy male and female subjects between the ages of 20 and 50 were enrolled in the study. All subjects were in good health as determined by a medical history, physical examination, 12-lead ECG, serum biochemistry, hematology, urinalysis and virology. Subjects were not permitted to take any prescribed medication within 30 days or non-prescribed medication within 7 days of the first dose administration.\nStudy Design: This study was a randomized, double-blind, placebo-controlled, ascending-dose trial to evaluate the safety, tolerability and pharmacokinetics (PK) of multiple oral doses of Compound I. Subjects were enrolled into 1 of the 4 cohorts, 10 subjects per cohort (active:placebo=8:2). Subjects received a multiple oral dose of 25, 50, 100, or 200 mg unformulated Compound I in a capsule, or matching placebo, once daily (QD) for 14 days.\nAssessments: Safety and tolerability were assessed by adverse event (AE) monitoring, clinical laboratory testing, vital sign measurement, 12-lead ECG measurement, concomitant medication assessment, and physical examination. Blood and urine samples were collected to assess the PK profile of Compound I and the S-cis isomer of Compound I. Blood samples (˜5 mL) for plasma PK analysis were collected in K2-EDTA vacutainer tubes to yield approximately 2 mL of plasma at each of the following time points: (i) Day 1: before dosing, and 0.25, 0.5, 1, 1.5, 2, 2.5, 3, 4, 6, 8, 10, 12, 16, and 24 hours after dosing; (ii) Day 3 to Day 9: before dosing; (iii) Day 10: before dosing, and 0.25, 0.5, 1, 1.5, 2, 2.5, 3, 4, 6, 8, 10, 12, and 16 hours after dosing; (iv) Day 11 to Day 13: before dosing; (v) Day 14: before dosing, and 0.25, 0.5, 1, 1.5, 2, 2.5, 3, 4, 6, 8, 10, 12, 16, 24, 48, 72, 96, 120, 144, and 168 hours after dosing. Urine samples for the PK analysis were collected as a single block at: (i) Day 1: before dosing (spot collection), 0 to 8, 8 to 16, and 16 to 24 hours after dosing; and (ii) Day 14: 0 to 8, 8 to 16, and 16 to 24 hours after dosing. Both plasma and urine concentrations of Compound I and its S-cis isomer were measured using validated liquid chromatography-tandem mass spectrometry (LC/MS/MS).\nData Analysis: Safety data were summarized using descriptive statistics by treatment. PK parameters for Compound I and its S-cis isomer were calculated using non-compartmental analysis using WinNonlin (Version 5.0.1 or greater; Pharsight Corporation, Mountain View, Calif.). Dose proportionality and dose independence were evaluated by visual inspection. Intra-subject variability was assessed using an ANOVA model using data from Days 10 and 14."}, "[2]": {"assay": "Oral developmental toxicity study in the rabbit", "conditions": "female, New Zealand White Hra:(NZW)SPF, rabbit, in vivo, oral", "from_the_text": "(§1) Additionally, four groups of five animals/group served as toxicokinetic (TK) animals and received the vehicle or test article in the same manner and dose levels as the main study groups. All time-mated females arrived at the laboratory on GD 0, the day evidence of mating was observed."}, "[3]": {"test_system": "time-mated female New Zealand White Hra:(NZW)SPF rabbits", "assay": "Oral developmental toxicity study in the rabbit", "conditions": "rabbits", "from_the_text": "as §1"}, "Aqueous solubility": {"assay": "Aqueous solubility", "type": "physicochemical", "conditions": "aqueous medium"}, "[4]": {"conditions": "plasma, 50 mg, 50 mg QD, Day 1, plasma, healthy subjects (N = 8)"}, "[5]": {"conditions": "plasma, 50 mg, 50 mg QD, Day 14, plasma, healthy subjects (N = 8)"}, "[6]": {"conditions": "plasma, 100 mg, 100 mg QD, Day 1, plasma, healthy subjects (N = 8)"}, "[7]": {"conditions": "plasma, 100 mg, 100 mg QD, Day 14, plasma, healthy subjects (N = 8)"}, "[8]": {"conditions": "plasma, 200 mg, 200 mg QD, Day 1, plasma, healthy subjects (N = 8)"}, "[9]": {"conditions": "plasma, 200 mg, 200 mg QD, Day 14, plasma, healthy subjects (N = 8)"}}, "note": "Read-outs that look alike come from different tables or passages of the source.", "data": [{"compound": "O[C@H]1CC[C@H](Nc2ncc3nc(Nc4c(F)cc(F)cc4F)n([C@H]4CCOC4)c3n2)CC1", "note": "[Compound I, 4-((9-((3S)-tetrahydro-3-furanyl)-8-((2,4,6-trifluorophenyl)amino)-9H-purin-2-yl)amino)-trans-cyclohexanol]", "values": [{"measurement": "AUC", "setting": "[1]; plasma, 25 mg, 25 mg QD, Day 14, plasma", "value": 4400, "unit": "ng·h/mL"}, {"measurement": "AUC(0-inf)", "setting": "[1]; plasma, 50 mg, 50 mg QD, Day 1, plasma (N = 8)", "value": 7750, "unit": "ng·h/mL"}, {"measurement": "Cmax", "setting": "[1]; [4]", "value": 406, "unit": "ng/mL"}, {"measurement": "concentration at 24 h", "setting": "[1]; [4]", "value": 125, "unit": "ng/mL"}, {"measurement": "Tmax", "setting": "[1]; plasma, 50 mg, 50 mg QD, Day 1, plasma, healthy subjects (N = 8), median, read-out: tmax", "value": 2.3, "unit": "h"}, {"measurement": "AUC", "setting": "[1]; plasma, 50 mg, 50 mg QD, Day 1, plasma", "value": 4560, "unit": "ng·h/mL"}, {"measurement": "AUC(0-inf)", "setting": "[1]; plasma, 50 mg, 50 mg QD, Day 14, plasma (N = 8)", "value": 21300, "unit": "ng·h/mL"}, {"measurement": "Cmax", "setting": "[1]; [5]", "value": 740, "unit": "ng/mL"}, {"measurement": "concentration at 24 h", "setting": "[1]; [5]", "value": 282, "unit": "ng/mL"}, {"measurement": "Tmax", "setting": "[1]; plasma, 50 mg, 50 mg QD, Day 14, plasma, healthy subjects (N = 8), median, read-out: tmax", "value": 2, "unit": "h"}, {"measurement": "AUC", "setting": "[1]; plasma, 50 mg, 50 mg QD, Day 14, plasma", "value": 9810, "unit": "ng·h/mL"}, {"measurement": "AUC(0-inf)", "setting": "[1]; plasma, 100 mg, 100 mg QD, Day 1, plasma (N = 8)", "value": 12200, "unit": "ng·h/mL"}, {"measurement": "Cmax", "setting": "[1]; [6]", "value": 637, "unit": "ng/mL"}, {"measurement": "concentration at 24 h", "setting": "[1]; [6]", "value": 183, "unit": "ng/mL"}, {"measurement": "Tmax", "setting": "[1]; plasma, 100 mg, 100 mg QD, Day 1, plasma, healthy subjects (N = 8), median, read-out: tmax", "value": 2, "unit": "h"}, {"measurement": "AUC", "setting": "[1]; plasma, 100 mg, 100 mg QD, Day 1, plasma", "value": 7300, "unit": "ng·h/mL"}, {"measurement": "AUC(0-inf)", "setting": "[1]; plasma, 100 mg, 100 mg QD, Day 14, plasma (N = 8)", "value": 31600, "unit": "ng·h/mL"}, {"measurement": "Cmax", "setting": "[1]; [7]", "value": 880, "unit": "ng/mL"}, {"measurement": "concentration at 24 h", "setting": "[1]; [7]", "value": 400, "unit": "ng/mL"}, {"measurement": "Tmax", "setting": "[1]; plasma, 100 mg, 100 mg QD, Day 14, plasma, healthy subjects (N = 8), median, read-out: tmax", "value": 1.8, "unit": "h"}, {"measurement": "AUC", "setting": "[1]; plasma, 100 mg, 100 mg QD, Day 14, plasma", "value": 12800, "unit": "ng·h/mL"}, {"measurement": "AUC(0-inf)", "setting": "[1]; plasma, 200 mg, 200 mg QD, Day 1, plasma (N = 8)", "value": 27000, "unit": "ng·h/mL"}, {"measurement": "Cmax", "setting": "[1]; [8]", "value": 1440, "unit": "ng/mL"}, {"measurement": "concentration at 24 h", "setting": "[1]; [8]", "value": 375, "unit": "ng/mL"}, {"measurement": "Tmax", "setting": "[1]; plasma, 200 mg, 200 mg QD, Day 1, plasma, healthy subjects (N = 8), median, read-out: tmax", "value": 1.8, "unit": "h"}, {"measurement": "AUC", "setting": "[1]; plasma, 200 mg, 200 mg QD, Day 1, plasma", "value": 15100, "unit": "ng·h/mL"}, {"measurement": "AUC(0-inf)", "setting": "[1]; plasma, 200 mg, 200 mg QD, Day 14, plasma (N = 8)", "value": 48400, "unit": "ng·h/mL"}, {"measurement": "Cmax", "setting": "[1]; [9]", "value": 1740, "unit": "ng/mL"}, {"measurement": "concentration at 24 h", "setting": "[1]; [9]", "value": 643, "unit": "ng/mL"}, {"measurement": "Tmax", "setting": "[1]; plasma, 200 mg, 200 mg QD, Day 14, plasma, healthy subjects (N = 8), median, read-out: tmax", "value": 1.8, "unit": "h"}, {"measurement": "AUC", "setting": "[1]; plasma, 200 mg, 200 mg QD, Day 14, plasma", "value": 22800, "unit": "ng·h/mL"}, {"measurement": "half-life", "setting": "[1]; plasma, 25-200 mg QD for 14 days, read-out: mean terminal half-life (t1/2)", "value": "1500 to 1860", "unit": "min"}, {"measurement": "Tmax", "setting": "[1]; plasma, 25-200 mg QD for 14 days, read-out: median tmax", "value": "1 to 2", "unit": "h"}, {"measurement": "CL renal", "setting": "[1]; 25 mg, 25 mg QD, Day 1, urine (n = 8)", "value": 9.5, "unit": "mL/min"}, {"measurement": "CL renal at 14 days", "setting": "[1]; 25 mg, 25 mg QD, Day 14, urine (n = 8)", "value": 13.3, "unit": "mL/min"}, {"measurement": "CL renal", "setting": "[1]; 50 mg, 50 mg QD, Day 1, urine (n = 8)", "value": 10.9, "unit": "mL/min"}, {"measurement": "CL renal", "setting": "[1]; 50 mg, 50 mg QD, Day 14, urine (n = 8)", "value": 11.8, "unit": "mL/min"}, {"measurement": "CL renal", "setting": "[1]; 100 mg, 100 mg QD, Day 1, urine (n = 8)", "value": 12, "unit": "mL/min"}, {"measurement": "CL renal", "setting": "[1]; 100 mg, 100 mg QD, Day 14, urine (n = 8)", "value": 15.4, "unit": "mL/min"}, {"measurement": "CL renal", "setting": "[1]; 200 mg, 200 mg QD, Day 1, urine (n = 8)", "value": 5.5, "unit": "mL/min"}, {"measurement": "CL renal at 14 days", "setting": "[1]; 200 mg, 200 mg QD, Day 14, urine (n = 8)", "value": 8.5, "unit": "mL/min"}, {"measurement": "NOAEL", "setting": "[2]", "value": 20, "unit": "mg/kg/day"}, {"measurement": "NOEL for developmental toxicity", "setting": "[3]", "value": 20, "unit": "mg/kg/day"}, {"measurement": "doses at which developmental effects were observed", "setting": "[3]", "value": 40, "unit": "mg/kg/day"}, {"measurement": "teratogenicity", "setting": "[3]", "value": "teratogenic"}, {"measurement": "litters with viable fetuses for evaluation on GD 29", "setting": "[3]; 10 mg/kg/day", "value": 19}, {"measurement": "main study pregnancy index", "setting": "[3]; 10 mg/kg/day", "value": 95, "unit": "%"}, {"measurement": "litters with viable fetuses for evaluation on GD 29", "setting": "[3]; 20 mg/kg/day", "value": 20}, {"measurement": "main study pregnancy index", "setting": "[3]; 20 mg/kg/day", "value": 100, "unit": "%"}, {"measurement": "litters with viable fetuses for evaluation on GD 29", "setting": "[3]; 40 mg/kg/day", "value": 10}, {"measurement": "main study pregnancy index", "setting": "[3]; 40 mg/kg/day", "value": 95, "unit": "%"}, {"measurement": "litters containing one or more fetuses with a malformation", "setting": "[3]; 40 mg/kg/day, GD 29, controls 25%", "value": 70, "unit": "%"}, {"measurement": "solubility", "setting": "Aqueous solubility", "value": "< 1000", "unit": "µg/mL"}]}]}
